# Reference: patent EP4696691A1, “TRICYCLIC COMPOUND, AND PREPARATION METHOD THEREFOR AND USE THEREOF” (Shanghai Huilun Pharmaceutical Co., Ltd., priority 2023, dated 2024)
# Where two headings read alike, the source gives them in different places.
# Biological target: T1, IRAK4-HiBiT fusion protein (Homo sapiens, UniProt Q9NWZ3)
# T1 construct: K562 from ATCC
# T1 sequence (Q9NWZ3 1-460): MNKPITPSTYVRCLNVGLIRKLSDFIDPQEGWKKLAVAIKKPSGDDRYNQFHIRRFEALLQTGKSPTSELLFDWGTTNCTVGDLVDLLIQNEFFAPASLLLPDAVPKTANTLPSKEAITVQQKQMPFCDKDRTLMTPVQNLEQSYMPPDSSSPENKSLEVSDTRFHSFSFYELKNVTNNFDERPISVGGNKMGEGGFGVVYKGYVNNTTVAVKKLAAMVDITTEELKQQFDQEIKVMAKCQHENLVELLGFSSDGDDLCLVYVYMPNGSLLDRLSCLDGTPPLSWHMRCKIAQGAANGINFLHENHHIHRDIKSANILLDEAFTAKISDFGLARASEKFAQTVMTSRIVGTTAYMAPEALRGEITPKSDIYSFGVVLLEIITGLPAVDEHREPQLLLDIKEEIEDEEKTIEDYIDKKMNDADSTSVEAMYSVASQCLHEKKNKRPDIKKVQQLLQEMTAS
# Test: Detection of HiBiT-IRAK4 proteolysis levels in K562 IRAK4-HiBiT cells (Nano-Glo HiBiT Lytic assay)
# Format: cell-based
# Description: Test Example 1 Detection of HiBiT-IRAK4 proteolysis levels in K562 IRAK4-HiBiT cells co-incubated with compounds of the present application • Reagents, devices, and consumables in experiments: • Nano-Glo Lytic Detection Assay, purchased from Promega; • EnVision, purchased from PerkinElmer; • Name of cell line: K562 IRAK4-HiBiT stable transformation cell strain (capable of stably expressing IRAK4-HiBiT fusion protein), constructed by Shanghai Bioduro Biologics Co., Ltd., where a K562 cell strain was purchased from ATCC. The culture medium is IMDM+10% FBS+1% P/S (volume percentage, where FBS is fetal bovine serum and P/S is Penicillin-Streptomycin, a 1:1 mixture of penicillin and streptomycin antibiotic solution (10,000 units/mL)).
# Cell culture: K562 IRAK4-HiBiT cells were incubated at 37°C, and passaged every 2-3 d, with a seeding density of 200,000 cells/mL.
# IRAK4-HiBiT proteolysis experiment: • Step 1: Cell seeding and treatment of compound • 1. A 10 mM compound mother liquor was prepared using DMSO, and a compound solution with a working concentration of 1,000 times (the highest working concentration is 10 µM, diluted 3.162 times, with a total of 10 concentration gradients) was prepared using Bravo automatic liquid processing platform. • 2. 40 nL of a compound working solution was transferred to a 384 well plate, and an equal volume of DMSO was added to positive control wells. • 3. 20 µL of a culture solution was added per well and shaken for 10 min. • 4.20 µL of a K562 IRAK4-HiBiT cell suspension was added per well (6,000 cells/well), and an equal volume of culture medium was added to negative control wells. • 5. The well plate was rotated at 1,000 rpm for 1 min. • 6. The cells were incubated in a 5% CO2 incubator at 37°C for 2 h or 6 h. • Step 2: HiBiT Lytic experiment • 1. The well plate was placed at room temperature to equilibrate for 30 min. • 2. 20 µL of Nano-Glo HiBiT Lytic reagent (trade name: Nano-Glo® HiBiT Lytic Detection Reagent) and the well plate was kept in the dark. • 3. The well plate was placed on an orbital shaker at 300 rpm for 5 min. • 4. The cells were incubated at room temperature for 10 min. • 5. The luminous value was read by Envision. • 6. Data was calculated and processed. Degradation degree%=(negative control - experimental well)/(negative control - positive control) * 100%. Using XL-fit software, a degradation curve was obtained by fitting using a 4 Parameter Logistic Model, and the values of Relative DC50 (nM) and Absolute DC50 (nM) were obtained.
# [1] = 6 h incubation, read-out: Absolute DC50
# [2] = 6 h incubation, read-out: Relative DC50
# [3] = 2 h incubation, read-out: Absolute DC50
# [4] = 2 h incubation, read-out: Relative DC50
Structure (SMILES),Dmax (6 h incubation) [%],DC50 [1] [nM],DC50 [2] [nM],Dmax (2 h incubation) [%],DC50 [3] [nM],DC50 [4] [nM]
CC(C)(O)c1cc2nn([C@H]3CC[C@H](CCN4CCN5c6ncc(C7CCC(=O)NC7=O)cc6OCC5C4)CC3)cc2cc1NC(=O)c1cccc(C(F)(F)F)n1 (stereo partly drawn) [Compound 2],96,6.32,5.43,,,
COc1cc2nn([C@H]3CC[C@H](CCN4CCN5c6ccc(C7CCC(=O)NC7=O)cc6OCC5C4)CC3)cc2cc1C(=O)Nc1cccc(C(F)(F)F)n1 (stereo partly drawn) [Compound 95],97,3.87,4.83,,,
COc1cc2nn(C3CCN(CCN4CCC5(CC4)OCc4cc(C6CCC(=O)NC6=O)ccc45)CC3)cc2cc1NC(=O)c1cccc(C(F)(F)F)n1 (stereo not drawn) [Compound 97],93,1.64,1.6,,,
COc1cc2nn(C3CCN(CCN4CCN5c6ccc(C7CCC(=O)NC7=O)cc6OCC5C4)CC3)cc2cc1NC(=O)c1cccc(C(F)(F)F)n1 (stereo not drawn) [Compound 98],89,< 1,0.2,,,
CC(C)(O)c1cc2nn([C@H]3CC[C@H](CN4CCC5(CC4)OCc4cc(C6CCC(=O)NC6=O)ccc45)CC3)cc2cc1NC(=O)c1cccc(C(F)(F)F)n1 (stereo partly drawn) [Compound 114],85,4.85,3.99,,,
CC(C)(O)c1cc2nn([C@H]3CC[C@H](CCN4CCN5c6ccc(C7(C)CCC(=O)NC7=O)cc6OCC5C4)CC3)cc2cc1NC(=O)c1ccc2cc(C#N)cnn12 (stereo partly drawn) [Compound 126],97,10.8,12.3,,,
CC(C)(O)c1cc2nn([C@H]3CC[C@H](CCN4CCN5c6ccc(C7CCC(=O)NC7=O)cc6OCC5C4)CC3)cc2cc1NC(=O)c1ccc2cc(C#N)cnn12 (stereo partly drawn) [Compound 129],97,4.41,4.32,,,
CC(C)(O)c1cc2nn([C@H]3CC[C@H](CCN4CCN5c6ccc(C7CCC(=O)NC7=O)cc6OCCC5C4)CC3)cc2cc1NC(=O)c1cccc(C(F)(F)F)n1 (stereo partly drawn) [Compound 130],97,8.13,8.51,,,

# Continued, values first:
Dmax (6 h incubation) [%],DC50 [1] [nM],DC50 [2] [nM],Dmax (2 h incubation) [%],DC50 [3] [nM],DC50 [4] [nM],Structure (SMILES)
,,,66,40.3,13.5,CC(C)(O)c1cc2nn(C3CCN(CCN4CCN5c6ccc(C7CCC(=O)NC7=O)cc6OCC5C4)CC3)cc2cc1NC(=O)c1cccc(C(F)(F)F)n1 (stereo not drawn) [Compound 99]
,,,87,7.2,4.28,[2H]C1(c2ccc3c(c2)OCC2CN(CCC4CCC(n5cc6cc(NC(=O)c7cccc(C(F)(F)F)n7)c(C(C)(C)O)cc6n5)CC4)CCN32)CCC(=O)NC1=O (stereo not drawn) [Compound 101]
77,146,81.4,,,,CC(C)(O)c1cc2nn([C@H]3CC[C@H](CCN4CC5(CCN6c7ccc(C8CCC(=O)NC8=O)cc7NC6C5)C4)CC3)cc2cc1NC(=O)c1cccc(C(F)(F)F)n1 (stereo partly drawn) [Compound 115]
83,8.37,4.48,,,,CC(C)(O)c1cc2nn([C@H]3CC[C@H](CCN4CCN5c6ncc(N7CCC(=O)NC7=O)cc6OCC5C4)CC3)cc2cc1NC(=O)c1cccc(C(F)(F)F)n1 (stereo partly drawn) [Compound 116]
89,11.7,10.3,,,,CC(C)(O)c1cc2nn([C@H]3CC[C@H](CCN4CCN5c6ccc(N7CCC(=O)NC7=O)cc6OCC5C4)CC3)cc2cc1NC(=O)c1cccc(C(F)(F)F)n1 (stereo partly drawn) [Compound 117]
,,,61,4.62,0.96,CC(C)(O)c1cc2nn([C@H]3CC[C@H](CCN4CCN5c6ccc(N7CCC(=O)NC7=O)cc6CCC5C4)CC3)cc2cc1NC(=O)c1cccc(C(F)(F)F)n1 (stereo partly drawn) [Compound 118]
,,,93,1.11,1.02,CC(C)(O)c1cc2nn([C@H]3CC[C@H](CCN4CCN5c6ccc(C7CCC(=O)NC7=O)cc6CCC5C4)CC3)cc2cc1NC(=O)c1cccc(C(F)(F)F)n1 (stereo partly drawn) [Compound 119]
,,,90,39,27.8,CC(C)(O)c1cc2nn([C@H]3CC[C@H](CCN4CCN5c6ccc(C7(C)CCC(=O)NC7=O)cc6OCC5C4)CC3)cc2cc1NC(=O)c1cccc(C(F)(F)F)n1 (stereo partly drawn) [Compound 120]
